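These data come from cells grown in 96-well plates and exposed to compound for 48 hours at five concentrations. At the TGI there is no net growth.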
Legend:
Assay in all cases: NCI anticancer screen, dose series, 48 h
HS 578T breast = test system: HS 578T breast
NCI-H460 lung = test system: NCI-H460 lung
CAKI-1 renal = test system: CAKI-1 renal
NCI-H522 lung = test system: NCI-H522 lung
LOX IMVI melanoma = test system: LOX IMVI melanoma
MCF7 breast = test system: MCF7 breast
NCI-H226 lung = test system: NCI-H226 lung
SK-MEL-28 melanoma = test system: SK-MEL-28 melanoma
U251 CNS = test system: U251 CNS
COLO 205 colon = test system: COLO 205 colon
EKVX NSCLC = test system: EKVX NSCLC
SF-539 CNS = test system: SF-539 CNS
KM12 colon = test system: KM12 colon
MDA-MB-435 = test system: MDA-MB-435
HOP-62 NSCLC = test system: HOP-62 NSCLC
M14 melanoma = test system: M14 melanoma
NCI-H23 lung = test system: NCI-H23 lung
SN12C renal = test system: SN12C renal
SNB-19 CNS = test system: SNB-19 CNS
UO-31 renal = test system: UO-31 renal
HL-60(TB) leukemia = test system: HL-60(TB) leukemia
RXF 393 renal = test system: RXF 393 renal
BT-549 breast = test system: BT-549 breast
OVCAR-5 ovarian = test system: OVCAR-5 ovarian
OVCAR-8 ovarian = test system: OVCAR-8 ovarian
IGROV1 ovarian = test system: IGROV1 ovarian
T-47D breast = test system: T-47D breast
UACC-62 melanoma = test system: UACC-62 melanoma
SW-620 colon = test system: SW-620 colon
A549 NSCLC = test system: A549 NSCLC
SF-295 CNS = test system: SF-295 CNS
UACC-257 melanoma = test system: UACC-257 melanoma
ACHN renal = test system: ACHN renal
HT29 colon = test system: HT29 colon
SK-MEL-5 melanoma = test system: SK-MEL-5 melanoma
MDA-N = test system: MDA-N
HCC-2998 colon = test system: HCC-2998 colon
OVCAR-4 ovarian = test system: OVCAR-4 ovarian
SK-MEL-2 melanoma = test system: SK-MEL-2 melanoma
OVCAR-3 ovarian = test system: OVCAR-3 ovarian
SNB-75 CNS = test system: SNB-75 CNS
RPMI-8226 leukemia = test system: RPMI-8226 leukemia
K-562 leukemia = test system: K-562 leukemia
A498 renal = test system: A498 renal
TK-10 renal = test system: TK-10 renal
HCT-15 colon = test system: HCT-15 colon
DU-145 prostate = test system: DU-145 prostate
SF-268 CNS = test system: SF-268 CNS
NCI/ADR-RES ovarian = test system: NCI/ADR-RES ovarian
MDA-MB-231 breast = test system: MDA-MB-231 breast
SR leukemia = test system: SR leukemia
PC-3 prostate = test system: PC-3 prostate
SK-OV-3 ovarian = test system: SK-OV-3 ovarian
HCT-116 colon = test system: HCT-116 colon
HOP-92 NSCLC = test system: HOP-92 NSCLC
786-0 renal = test system: 786-0 renal
MOLT-4 leukemia = test system: MOLT-4 leukemia
CCRF-CEM leukemia = test system: CCRF-CEM leukemia
MALME-3M melanoma = test system: MALME-3M melanoma

In the case of `COc1cc2ccc(/C=C\[N+](=O)[O-])cc2cc1OC`, the TGI (HS 578T breast) is reported as 37.8 µM, the TGI (NCI-H460 lung) is reported as > 56.4 µM and the TGI (CAKI-1 renal) is reported as 20 µM. For the same compound, the TGI (NCI-H522 lung) was 3.4 µM, the TGI (LOX IMVI melanoma) was 3.42 µM and the TGI (MCF7 breast) was 7.06 µM. The TGI (NCI-H226 lung) was 76.5 µM, the TGI (SK-MEL-28 melanoma) was 7.51 µM and the TGI (U251 CNS) was 9.87 µM. For the same compound, the TGI (COLO 205 colon) was 15.9 µM, the TGI (EKVX NSCLC) was 15.5 µM and the TGI (SF-539 CNS) was 4.91 µM. For the same compound, the TGI (KM12 colon) was 19.3 µM, the TGI (MDA-MB-435) was 7.63 µM and the TGI (HOP-62 NSCLC) was 16.1 µM. It also gave a TGI (M14 melanoma) of 7.41 µM, a TGI (NCI-H23 lung) of 6.98 µM and a TGI (SN12C renal) of 6.3 µM. For the same compound, the TGI (SNB-19 CNS) was 27.7 µM, the TGI (UO-31 renal) was 3.36 µM and the TGI (HL-60(TB) leukemia) was 5.07 µM. It also gave a TGI (RXF 393 renal) of 3.51 µM, a TGI (BT-549 breast) of 5.74 µM and a TGI (OVCAR-5 ovarian) of 30.3 µM. The TGI (OVCAR-8 ovarian) was 9.72 µM, the TGI (IGROV1 ovarian) was 3.92 µM and the TGI (T-47D breast) was 12.5 µM. For the same compound, the TGI (UACC-62 melanoma) was 21.7 µM, the TGI (SW-620 colon) was > 24.6 µM and the TGI (A549 NSCLC) was 29.8 µM. The TGI (SF-295 CNS) was 33.8 µM, the TGI (UACC-257 melanoma) was > 22.9 µM and the TGI (ACHN renal) was 3.2 µM. For the same compound, the TGI (HT29 colon) was 4 µM, the TGI (SK-MEL-5 melanoma) was 17.5 µM and the TGI (MDA-N) was 5.78 µM. For the same compound, the TGI (HCC-2998 colon) was 13.6 µM, the TGI (OVCAR-4 ovarian) was 7.56 µM and the TGI (SK-MEL-2 melanoma) was 9.43 µM. It also gave a TGI (OVCAR-3 ovarian) of 18.1 µM, a TGI (SNB-75 CNS) of 5.76 µM and a TGI (RPMI-8226 leukemia) of 5.44 µM. For the same compound, the TGI (K-562 leukemia) was > 24.6 µM, the TGI (A498 renal) was 29.1 µM and the TGI (TK-10 renal) was 9.01 µM. The TGI (HCT-15 colon) was 17.2 µM, the TGI (DU-145 prostate) was 4.39 µM and the TGI (SF-268 CNS) was 11 µM. For the same compound, the TGI (NCI/ADR-RES ovarian) was 17.2 µM, the TGI (MDA-MB-231 breast) was 9.02 µM and the TGI (SR leukemia) was 5.28 µM. It also gave a TGI (PC-3 prostate) of 7.28 µM, a TGI (SK-OV-3 ovarian) of 28.4 µM and a TGI (HCT-116 colon) of 5.16 µM. It also gave a TGI (HOP-92 NSCLC) of 10.1 µM, a TGI (786-0 renal) of 3.09 µM and a TGI (MOLT-4 leukemia) of 19.1 µM.

`CN(CCCCCl)P(=O)(OCc1ccc([N+](=O)[O-])o1)OC[C@H]1O[C@@H](n2cc(F)c(=O)[nH]c2=O)C[C@@H]1O` (some centres undefined) gave a TGI (HS 578T breast) of 8.68 µM, a TGI (NCI-H460 lung) of 45.5 µM and a TGI (NCI-H522 lung) of 19.5 µM. It also gave a TGI (LOX IMVI melanoma) of 12.9 µM, a TGI (MCF7 breast) of 4.45 µM and a TGI (CCRF-CEM leukemia) of 20.7 µM. The TGI (NCI-H226 lung) was > 86.6 µM, the TGI (SK-MEL-28 melanoma) was > 61.3 µM and the TGI (U251 CNS) was 34.6 µM. For the same compound, the TGI (COLO 205 colon) was 16.5 µM, the TGI (EKVX NSCLC) was > 100 µM and the TGI (SF-539 CNS) was 0.217 µM. The TGI (KM12 colon) was 28.7 µM, the TGI (MDA-MB-435) was 39 µM and the TGI (HOP-62 NSCLC) was 25.6 µM. The TGI (M14 melanoma) was 20 µM, the TGI (NCI-H23 lung) was 20.5 µM and the TGI (SN12C renal) was 9.07 µM. The TGI (MALME-3M melanoma) was 36.1 µM, the TGI (SNB-19 CNS) was > 55.3 µM and the TGI (UO-31 renal) was > 100 µM. The TGI (HL-60(TB) leukemia) was > 23.6 µM, the TGI (RXF 393 renal) was 17.4 µM and the TGI (BT-549 breast) was 49.1 µM. The TGI (OVCAR-5 ovarian) was > 100 µM, the TGI (OVCAR-8 ovarian) was > 100 µM and the TGI (IGROV1 ovarian) was > 63.5 µM. The TGI (T-47D breast) was 5.41 µM, the TGI (UACC-62 melanoma) was 6.48 µM and the TGI (SW-620 colon) was > 81.8 µM. For the same compound, the TGI (A549 NSCLC) was > 26.4 µM, the TGI (SF-295 CNS) was 3.48 µM and the TGI (UACC-257 melanoma) was > 68 µM. The TGI (ACHN renal) was > 100 µM, the TGI (HT29 colon) was > 100 µM and the TGI (SK-MEL-5 melanoma) was 12.9 µM. The TGI (MDA-N) was 33.3 µM, the TGI (OVCAR-4 ovarian) was 33.5 µM and the TGI (SK-MEL-2 melanoma) was 36.1 µM. The TGI (OVCAR-3 ovarian) was 19.1 µM, the TGI (SNB-75 CNS) was 6.95 µM and the TGI (RPMI-8226 leukemia) was 38.4 µM. For the same compound, the TGI (K-562 leukemia) was > 59.4 µM, the TGI (A498 renal) was 0.0982 µM and the TGI (TK-10 renal) was > 79.8 µM. The TGI (HCT-15 colon) was > 100 µM, the TGI (DU-145 prostate) was 40.2 µM and the TGI (SF-268 CNS) was 13.2 µM. The TGI (NCI/ADR-RES ovarian) was 36.3 µM, the TGI (MDA-MB-231 breast) was 34.2 µM and the TGI (SR leukemia) was 24.2 µM. The TGI (PC-3 prostate) was > 56.1 µM, the TGI (SK-OV-3 ovarian) was 34.1 µM and the TGI (HCT-116 colon) was > 43.8 µM. The TGI (HOP-92 NSCLC) was 20.3 µM, the TGI (786-0 renal) was > 80.1 µM and the TGI (MOLT-4 leukemia) was > 46.1 µM.

Source: PubChem BioAssay (NCI)
